Data from patent US9546160B2, “Hepatitis C virus inhibitors” (Bristol-Myers Squibb Company, priority 2011, dated 2017).

Tested on: HCV 1b genotype
Test: HCV Replicon assay
Assay type: cell-based
Details: HCV 1b genotype replicon; read-out: 1b (μM) EC50 (Effective 50% inhibitory concentration)
Experimental: An HCV Replicon assay was utilized in the present disclosure, and was prepared, conducted and validated as described in commonly owned PCT/US2006/022197 and in O'Boyle et. al. Antimicrob Agents Chemother. 2005 Apr; 49(4):1346-53. Assay methods incorporating luciferase reporters have also been used as described (Apath.com).
HCV-neo replicon cells and replicon cells containing resistance substitutions in the NS5A region were used to test the currently described family of compounds.

| Structure (SMILES) | EC50 [nM] |
| --- | --- |
| COC(=O)NC(C(=O)N1[C@@H]2C[C@@H]2C[C@H]1c1nc(-c2ccc(-c3ccc(-c4c[nH]c([C@@H]5C[C@H]6C[C@H]6N5C(=O)C(NC(=O)OC)[C@H]5C[C@@H]6[C@H](C5)C6(F)F)n4)cc3)cc2)c[nH]1)[C@H]1C[C@@H]2[C@H](C1)C2(F)F (stereo partly drawn) [QC2.3, dimethyl (4,4′-biphenyldiylbis(1H-imidazole-4,2-diyl(1R,3S,5R)-2-azabicyclo[3.1.0]hexane-3,2-diyl(1-((1R,3r,5S)-6,6-difluorobicyclo[3.1.0]hex-3-yl)-2-oxo-2,1-ethanediyl)))biscarbamate] | 1.08 |

Same assay, conditions: HCV 1b genotype replicon; read-out: Range (EC50 ranges against HCV 1b)

| Structure (SMILES) | EC50 [nM] |
| --- | --- |
| COC(=O)NC(C(=O)N1[C@@H](C)CC[C@H]1c1ncc(-c2ccc(-c3ccc(-c4cnc([C@@H]5CC[C@H](C)N5C(=O)C(NC(=O)OC)C5CCOC6(CCCC6)C5)[nH]4)cc3)cc2)[nH]1)C1CCOC2(CCCC2)C1 (single isomer, unassigned) [Example 3.1] | 0.9 to 140 |
| COC(=O)NC(C(=O)N1[C@@H]2C[C@@H]2C[C@H]1c1nc(-c2ccc(-c3ccc(-c4c[nH]c([C@@H]5C[C@H]6C[C@H]6N5C(=O)C(NC(=O)OC)[C@@H]5C[C@@H]6C[C@@H]6C5)n4)cc3)cc2)c[nH]1)[C@@H]1C[C@@H]2C[C@@H]2C1 (stereo partly drawn) [QC3.3, dimethyl (4,4′-biphenyldiylbis(1H-imidazole-4,2-diyl(1R,3S,5R)-2-azabicyclo[3.1.0]hexane-3,2-diyl(1-((1R,3r,5S)-bicyclo[3.1.0]hex-3-yl)-2-oxo-2,1-ethanediyl)))biscarbamate] | 0.1 to 0.9 |
| COC(=O)NC(C(=O)N1[C@@H](C)CC[C@H]1c1ncc(-c2ccc(-c3ccc(-c4cnc([C@@H]5CC[C@H](C)N5C(=O)C(NC(=O)OC)C5CCOC6(CCC6)C5)[nH]4)cc3)cc2)[nH]1)C1CCOC2(CCC2)C1 (single isomer, unassigned) [Example 2.1] | 0.9 to 140 |
| COC(=O)NC(C(=O)N1[C@@H]2C[C@@H]2C[C@H]1c1nc(-c2ccc(-c3ccc(-c4c[nH]c([C@@H]5C[C@H]6C[C@H]6N5C(=O)C(NC(=O)OC)[C@H]5C[C@@H]6[C@H](C5)C6(F)F)n4)cc3)cc2)c[nH]1)[C@H]1C[C@@H]2[C@H](C1)C2(F)F (stereo partly drawn) [QC2.3, dimethyl (4,4′-biphenyldiylbis(1H-imidazole-4,2-diyl(1R,3S,5R)-2-azabicyclo[3.1.0]hexane-3,2-diyl(1-((1R,3r,5S)-6,6-difluorobicyclo[3.1.0]hex-3-yl)-2-oxo-2,1-ethanediyl)))biscarbamate] | 0.9 to 140 |
| COC(=O)NC(C(=O)N1[C@@H](C)CC[C@H]1c1ncc(-c2ccc(-c3ccc(-c4cnc([C@@H]5CC[C@H](C)N5C(=O)C(NC(=O)OC)C5CCOC6(CCCC6)C5)[nH]4)cc3)cc2)[nH]1)C1CCOC2(CCCC2)C1 (single isomer, unassigned) [Example 3.2] | 0.9 to 140 |
| COC(=O)NC(C(=O)N1[C@@H]2C[C@@H]2C[C@H]1c1nc(-c2ccc(-c3ccc(-c4c[nH]c([C@@H]5C[C@H]6C[C@H]6N5C(=O)C(NC(=O)OC)[C@@H]5C[C@@H]6C[C@@H]6C5)n4)cc3)cc2)c[nH]1)[C@@H]1C[C@@H]2C[C@@H]2C1 (stereo partly drawn) [QC3.2, dimethyl (4,4′-biphenyldiylbis(1H-imidazole-4,2-diyl(1R,3S,5R)-2-azabicyclo[3.1.0]hexane-3,2-diyl(1-((1R,3r,5S)-bicyclo[3.1.0]hex-3-yl)-2-oxo-2,1-ethanediyl)))biscarbamate] | 0.00501 to 0.1 |
| COC(=O)N[C@@H](C(=O)N1C2C[C@@H]2C[C@H]1c1nc(-c2ccc(-c3ccc(-c4c[nH]c([C@@H]5C[C@H]6CC6N5C(=O)[C@H](NC(=O)OC)C5[C@H]6COC[C@@H]56)n4)cc3)cc2)c[nH]1)C1[C@H]2COC[C@@H]12 (stereo partly drawn) [QC4.2, dimethyl (4,4′-biphenyldiylbis(1H-imidazole-4,2-diyl(1R,3S,5R)-2-azabicyclo[3.1.0]hexane-3,2-diyl(1-((1R,5S,6s)-3-oxabicyclo[3.1.0]hex-6-yl)-2-oxo-2,1-ethanediyl)))biscarbamate] | 0.1 to 0.9 |
| COC(=O)N[C@@H](C(=O)N1C2C[C@@H]2C[C@H]1c1nc(-c2ccc(-c3ccc(-c4c[nH]c([C@@H]5C[C@H]6CC6N5C(=O)[C@H](NC(=O)OC)C5[C@H]6COC[C@@H]56)n4)cc3)cc2)c[nH]1)C1[C@H]2COC[C@@H]12 (stereo partly drawn) [QC4.1, dimethyl (4,4′-biphenyldiylbis(1H-imidazole-4,2-diyl(1R,3S,5R)-2-azabicyclo[3.1.0]hexane-3,2-diyl(1-((1R,5S,6s)-3-oxabicyclo[3.1.0]hex-6-yl)-2-oxo-2,1-ethanediyl)))biscarbamate] | 0.00501 to 0.1 |
| COC(=O)NC(C(=O)N1[C@@H](C)CC[C@H]1c1nc(-c2ccc(-c3ccc(-c4c[nH]c([C@@H]5CC[C@H](C)N5C(=O)C(NC(=O)OC)C5CCC6(CC6)OC5)n4)cc3)cc2)c[nH]1)C1CCC2(CC2)OC1 (some centres unmarked) [Example 1.2] | 0.00501 to 0.1 |
| COC(=O)NC(C(=O)N1[C@@H](C)CC[C@H]1c1ncc(-c2ccc(-c3ccc(-c4cnc([C@@H]5CC[C@H](C)N5C(=O)C(NC(=O)OC)C5CCOC6(CCC6)C5)[nH]4)cc3)cc2)[nH]1)C1CCOC2(CCC2)C1 (single isomer, unassigned) [Example 2.2] | 0.9 to 140 |
| COC(=O)NC(C(=O)N1[C@@H]2C[C@@H]2C[C@H]1c1nc(-c2ccc(-c3ccc(-c4c[nH]c([C@@H]5C[C@H]6C[C@H]6N5C(=O)C(NC(=O)OC)[C@H]5C[C@@H]6[C@H](C5)C6(F)F)n4)cc3)cc2)c[nH]1)[C@H]1C[C@@H]2[C@H](C1)C2(F)F (stereo partly drawn) [QC2.2, dimethyl (4,4′-biphenyldiylbis(1H-imidazole-4,2-diyl(1R,3S,5R)-2-azabicyclo[3.1.0]hexane-3,2-diyl(1-((1R,3r,5S)-6,6-difluorobicyclo[3.1.0]hex-3-yl)-2-oxo-2,1-ethanediyl)))biscarbamate] | 0.00501 to 0.1 |

Same assay, conditions: Hepatitis C virus, HCV 1b genotype replicon; read-out: 1b (μM) EC50 (Effective 50% inhibitory concentration)

| Structure (SMILES) | EC50 [nM] |
| --- | --- |
| COC(=O)NC(C(=O)N1[C@@H]2C[C@@H]2C[C@H]1c1nc(-c2ccc(-c3ccc(-c4c[nH]c([C@@H]5C[C@H]6C[C@H]6N5C(=O)C(NC(=O)OC)[C@H]5C[C@@H]6C[C@@H]6C5)n4)cc3)cc2)c[nH]1)[C@H]1C[C@@H]2C[C@@H]2C1 (single isomer, unassigned) [QC5.3] | 0.00555 |
| COC(=O)NC(C(=O)N1[C@@H]2C[C@@H]2C[C@H]1c1nc(-c2ccc(-c3ccc(-c4c[nH]c([C@@H]5C[C@H]6C[C@H]6N5C(=O)C(NC(=O)OC)[C@@H]5C[C@@H]6[C@H](C5)C6(F)F)n4)cc3)cc2)c[nH]1)[C@@H]1C[C@@H]2[C@H](C1)C2(F)F (single isomer, unassigned) [QC1.2] | 0.0049 |

Same assay, conditions: Hepatitis C virus, HCV 1b genotype replicon; read-out: Range (EC50 ranges against HCV 1b)

| Structure (SMILES) | EC50 [nM] |
| --- | --- |
| COC(=O)NC(C(=O)N1[C@@H]2C[C@@H]2C[C@H]1c1nc(-c2ccc(-c3ccc(-c4c[nH]c([C@@H]5C[C@H]6C[C@H]6N5C(=O)C(NC(=O)OC)[C@H]5C[C@@H]6C[C@@H]6C5)n4)cc3)cc2)c[nH]1)[C@H]1C[C@@H]2C[C@@H]2C1 (single isomer, unassigned) [QC5.3] | 0.00501 to 0.1 |
| COC(=O)NC(C(=O)N1[C@@H](C)CC[C@H]1c1ncc(-c2ccc(-c3ccc(-c4cnc([C@@H]5CC[C@H](C)N5C(=O)C(NC(=O)OC)C5CC6(CC6)C5)[nH]4)cc3)cc2)[nH]1)C1CC2(CC2)C1 (some centres unmarked) [Example 5.2] | 0.9 to 140 |
| COC(=O)NC(C(=O)N1[C@@H]2C[C@@H]2C[C@H]1c1nc(-c2ccc(-c3ccc(-c4c[nH]c([C@@H]5C[C@H]6C[C@H]6N5C(=O)C(NC(=O)OC)[C@@H]5C[C@@H]6[C@H](C5)C6(F)F)n4)cc3)cc2)c[nH]1)[C@@H]1C[C@@H]2[C@H](C1)C2(F)F (single isomer, unassigned) [QC1.3] | 0.1 to 0.9 |
| COC(=O)N[C@H](C(=O)C1[C@@H](CF)CC[C@H]1c1ncc(-c2ccc(-c3ccc(-c4cnc([C@@H]5CC[C@H](CF)N5C(=O)[C@@H](NC(=O)OC)[C@H]5CCOC6(CC6)C5)[nH]4)cc3)cc2)[nH]1)[C@H]1CCOC2(CC2)C1 (some centres unmarked) [Example 8] | 0.00501 to 0.1 |
| COC(=O)NC(C(=O)N1[C@@H](C)CC[C@H]1c1nc(-c2ccc(-c3ccc(-c4c[nH]c([C@@H]5CC[C@H](C)N5C(=O)C(NC(=O)OC)C5CCC6(CC6)OC5)n4)cc3)cc2)c[nH]1)C1CCC2(CC2)OC1 (some centres unmarked) [Example 1.1] | 0.00501 to 0.1 |
| COC(=O)NC(C(=O)N1CCC[C@H]1c1nc(-c2ccc(-c3c[nH]c([C@@H]4CCCN4C(=O)C(NC(=O)OC)C4CCOC5(CC5)C4)n3)cc2)c[nH]1)C1CCOC2(CC2)C1 (stereo partly drawn) [Example QC14, dimethyl (benzene-1,4-diylbis(1H-imidazole-4,2-diyl(2S)pyrrolidine-2,1-diyl(1-(4-oxaspiro[2.5]oct-7-yl)-2-oxoethane-2,1-diyl)))biscarbamate] | 0.9 to 140 |
